The test system of one data set is C. albicans 1208E. Kind of data set: in vitro antifungal MIC, two-fold serial dilution. The data set is classed as cell-based. The conditions noted are these: Candida albicans, 24 to 48 hours at 37° C. On the procedure: (§1) The in vitro evaluation of the anti-fungal activity of compounds of the invention was performed on liquid or solid medium by the anti-fungal two-fold serial dilution technique of determining the minimum inhibitory concentration (MIC) of anti-fungal agent that inhibited development of growth after 24 to 48 hours of incubation at 37° C. In practice, a series of agar plates or broth microdilution panels containing two-fold dilutions of anti-fungal agent tested were inoculated with a standard culture of a clinically relevant pathogen, for example, candida albicans. The agar plates or broth microdulution panels were then examined for the presence or absence of growth of the fungus and the appropriate MIC values were noted. Compounds of formula (I) have been tested for anti fungal activity in a standard in vitro screen and the minimum inhibiting concentration (MIC; μg/ml) determined for each compound against a variety of clinically relevant pathogens.

The next data set concerns C. albicans 2005E. Kind of data set: in vitro antifungal MIC, two-fold serial dilution. The class given is cell-based. Conditions: Candida albicans, 24 to 48 hours at 37° C. On the procedure:
as §1

The next data set concerns C. albicans 2402E. Put plainly: in vitro antifungal MIC, two-fold serial dilution. The data set is classed as cell-based. Conditions: Candida albicans, 24 to 48 hours at 37° C. On the procedure: as §1
In the next data set the test system is C. albicans 4711. Kind of data set: in vitro antifungal MIC, two-fold serial dilution. The data set is classed as cell-based. Conditions: Candida albicans, 24 to 48 hours at 37° C. The protocol:
as §1

The test system of the next data set is C. glabrata 2375E. Put plainly: in vitro antifungal MIC, two-fold serial dilution. The data set is classed as cell-based. Conditions: Nakaseomyces glabratus, 24 to 48 hours at 37° C. On the procedure: as §1
In another data set the test system is C. glabrata 2376E. Kind of data set: in vitro antifungal MIC, two-fold serial dilution. The data set is classed as cell-based. Conditions: Nakaseomyces glabratus, 24 to 48 hours at 37° C. The protocol: as §1
A further data set deals with C. neoformans 2867E. Kind of data set: in vitro antifungal MIC, two-fold serial dilution. The data set is classed as cell-based. The conditions noted are these: Cryptococcus neoformans, 24 to 48 hours at 37° C. On the procedure: as §1
The subject of a further data set is C. tropicalis 2808E. Kind of data set: in vitro antifungal MIC, two-fold serial dilution. Conditions: Candida tropicalis, 24 to 48 hours at 37° C. The data set is classed as cell-based. On the procedure: as §1
Another data set has as its system C. psuedotropicalis 371E. Kind of data set: in vitro antifungal MIC, two-fold serial dilution. The data set is classed as cell-based, Candida pseudotropicalis. Conditions: Kluyveromyces marxianus, 24 to 48 hours at 37° C. The protocol:
as §1

The subject of the next data set is C. albicans 4711E. Kind of data set: in vivo protection of mice infected with C. albicans. On the set-up: species or system Candida albicans; male mice. Conditions: 50 mg/kg sc. From the text:
The in vivo evaluation of compounds of formula (I) can be carried out at a series of dose levels by administration (e.g. subcutaneously, orally, intraperitoneally or intravenously) to mice or rats inoculated with a strain of Candida albicans. Untreated animals die within 3 to 9 days and the dose level at which the test compound provides 50% protection against the lethal effect of the infection is noted.
(§2) The compounds of the invention are essentially non-toxic at therapeutically useful levels.

Data set [1] is described as follows: adverse effects in treated mice. The data set is classed as in vivo, male mice. The conditions noted are these: 50 mg/kg sc.
Description: as §2

Values after ≈ are worked out from the molar mass of the structure shown. Where only a bound is given, the exact number is not on record here.

A word on the MIC: it is the lowest concentration that inhibits growth of the organism. For the compound `CCCOC1CC(OCC23CC4C(C)CCC4C4(C=O)CC2C=C(C(C)C)C43C(=O)O)OC(C)C1OC` [Example 7, [1R-(1α, 3aβ, 4β, 4aβ, 7β, 7aα, 8aβ)] 8a-[(2,6-Dideoxy-4-O-3-O-propyl-β-D-alopyranosyloxy)methyl]-4-formyl-4,4a,5,6,7,7a,8,8a-octahydro-7-methyl-3-(1-methylethyl)-1,4-methano-s-indacene-3a(1H)-carboxylic acid], the MIC against C. albicans 1208E is 15 ng/mL (≈ 0.0289 µM); in the data set on C. albicans 2005E, no more than 1 ng/mL; against C. albicans 2402E it was 8 ng/mL (≈ 0.0154 µM); against C. albicans 4711, 4 ng/mL (≈ 0.00771 µM); against C. glabrata 2375E it was 8000 ng/mL (≈ 15.4 µM); with C. glabrata 2376E it was 8000 ng/mL (≈ 15.4 µM). In addition, the MIC amounted to 125000 ng/mL (≈ 241 µM) against C. neoformans 2867E, 3 ng/mL (≈ 0.00578 µM) in the data set on C. tropicalis 2808E and 4 ng/mL (≈ 0.00771 µM) in the data set with C. psuedotropicalis 371E. For the same compound, the “protection of male mice infected with C. albicans 4711E” value in the data set on C. albicans 4711E is reported as “active in protecting male mice”. The “adverse effects in the treated mice” value in data set [1] was “no adverse effects were observed”.

The values are drawn from patent publication US6054478A, “Antifungal sordaridin derivatives” (Glaxo Wellcome S.A., priority 1994, dated 2000).
